Assay results published in US4572907A, “High caloric product for I.V. administration” (Abbott Laboratories, priority 1984, dated 1986).

Columns and labels:
[1] = Stability of the compound, solid or in water (NMR and TLC analysis); format: physicochemical
[2] = Toxicity (LD50) when tested in mice; settings: mouse, in vivo
Excerpt: Another advantage of the compounds of this invention are their low toxicity.

Compound	degradation at 0° after one month ([1]; 0°, one month, NMR and TLC analysis)	stability at 0° ([1]; 0°, substantially long periods of time)	hydrolysis in water after one month ([1]; 15 mg/mL in water, room temperature, one month)	stability in water ([1]; 15 mg/mL in water, room temperature, one week, TLC analysis)	acyl-migration products ([1]; aqueous solution, 60°)	relative hydrolysis of β- and α-anomers ([1]; aqueous solution, 60°)	α-anomers remaining after 36 hours ([1]; aqueous solution, 60°, 36 hours, α-anomers)	β-anomers remaining after 36 hours ([1]; aqueous solution, 60°, 36 hours, β-anomers)	hydrolysis of aqueous solution at 60° ([1]; aqueous solution, 60°, formation of D-glucose, NMR and TLC analysis)	time after which slow degradation of the solid was noted ([1]; solid compound, 60°, D-glucose and unidentified decomposition products (TLC))	LD50 [2]
CCCCC(C(=O)OC1O[C@H](CO)[C@@H](O)[C@H](O)[C@H]1O)C(=O)OC1O[C@H](CO)[C@@H](O)[C@H](O)[C@H]1O (stereo partly drawn) [Example 2, Di-(1,1'-D-glucopyranosyl)n-butylmalonates]	no noticeable degradation	stable at 0° for substantially long periods of time	Partial hydrolysis into D-glucose	stable in water	No acyl-migration products were detected	hydrolysis of the β-anomers appeared faster than that of the α-anomers	some α-anomers were still present	completely disappeared	some hydrolysis after about two hours	3 h	–
CCC(C(=O)OC1O[C@H](CO)[C@@H](O)[C@H](O)[C@H]1O)C(=O)OC1O[C@H](CO)[C@@H](O)[C@H](O)[C@H]1O (stereo partly drawn) [Example 4, Di-(1,1'-D-glucopyranosyl)ethylmalonates]	–	–	–	–	–	–	–	–	–	–	9700 mg/kg
